# Values joined by “and” are separate entries in the source; they are usually repeats but may differ in a detail not shown here. Equal entries are not always repeated.
# Key:
# [1] = target: T1, CETP (Homo sapiens, UniProt P11597); assay: CETP in vitro assay (Amersham kit TRKQ7005; modified protocol in human plasma, [3H]CE-HDL transfer); format: biochemical; conditions: for % Inhibition @ 1 μM / inhibition at 1 µM: 1 μM compound; for inhibition at 1 µM: read-out: % Inhibition @ 1 μM; for IC50: from plots of % control versus compound concentration
# T1 construct: from tissue; host or cells: human plasma from normal volunteers
# T1 sequence (P11597 18-493): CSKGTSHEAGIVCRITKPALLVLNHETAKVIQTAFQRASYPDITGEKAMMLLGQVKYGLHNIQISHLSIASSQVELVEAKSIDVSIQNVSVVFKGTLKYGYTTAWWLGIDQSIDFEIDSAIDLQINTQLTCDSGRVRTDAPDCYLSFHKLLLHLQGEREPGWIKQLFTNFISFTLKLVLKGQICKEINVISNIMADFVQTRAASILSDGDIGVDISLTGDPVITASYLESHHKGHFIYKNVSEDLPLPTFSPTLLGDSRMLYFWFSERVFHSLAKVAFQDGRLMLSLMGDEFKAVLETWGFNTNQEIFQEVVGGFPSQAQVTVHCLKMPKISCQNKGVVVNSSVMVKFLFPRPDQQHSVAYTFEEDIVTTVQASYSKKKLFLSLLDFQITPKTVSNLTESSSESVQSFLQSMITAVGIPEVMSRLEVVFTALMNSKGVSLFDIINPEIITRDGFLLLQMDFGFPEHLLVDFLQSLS
# Summary of the method: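 IC50 values were derived by plotting % of vehicle control against compound concentration. Transfer was quantified by counting supernatant radioactivity after Dextralip/MgCl2 precipitation. Compound, human plasma and [3H]CE-HDL (about 25 μg/ml, as added) were incubated 4 h or more at 37 °C, with a 4 °C plate as the non-specific blank.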
# [2] = system: cholesterol-fed hamsters; assay: CETP in vivo assay: lipid parameters in cholesterol-fed hamsters; conditions: plasma, mean ± SEM, n = 8
# Experimental: To determine the in vivo efficacy of a test compound, hamsters were first fed a moderately high cholesterol diet (Research Diets, D5012801) for two weeks before commencing treatment. The animals were orally gavaged with the vehicle (10% solutol, 5% ethanol, 85% D5W) and test compound for 5 days with the last dose being administered 2 hrs before sacrifice. Plasma was obtained and lipid parameters were measured.
# [3] = particularly in combination with Atorvastatin; cited from earlier work
# [4] = system: rabbits; conditions: 30 mg/kg; cited from earlier work
# [5] = system: rabbits had severe hypercholesterolemia; conditions: rabbits with severe hypercholesterolemia; cited from earlier work
# [6] = clinical studies; cited from earlier work
# [7] = 10 mg/kg oral gavage for 5 days
# [8] = 30 mg/kg oral gavage for 5 days
smiles,measurement,setting,value
"O[C@@H](CN1c2cccc(-c3cccc(OC(F)(F)F)c3)c2CC[C@@H]1c1cccc(OC(F)(F)C(F)F)c1)C(F)(F)F [Compound 78, (S)-1,1,1-trifluoro-3-((R)-2-(3-(1,1,2,2-tetrafluoroethoxy)phenyl)-5-(3-(trifluoromethoxy)phenyl)-3,4-dihydroquinolin-1 (2H)-yl)propan-2-ol]",% Inhibition @ 1 μM,[1],79%
same,inhibition at 1 µM,[1],85%
same,IC50,[1],34 nM and 44 nM
same,HDL-C,"[2]; 3 mg/kg oral gavage for 5 days, last dose 2 hrs before sacrifice",96.2 ± 4.9 mg/dL
same,HDL-C/LDL-C,[2]; 3 mg/kg oral gavage for 5 days,3.1 ± 0.2
same,LDL-C,[2]; 3 mg/kg oral gavage for 5 days,31.6 ± 1.9 mg/dL
same,Total Cholesterol,[2]; 3 mg/kg oral gavage for 5 days,149.3 ± 7.7 mg/dL
same,Triglycerides,[2]; 3 mg/kg oral gavage for 5 days,217.7 ± 18.1 mg/dL
same,HDL-C,[2]; [7],117.9 ± 2.9 mg/dL
same,HDL-C/LDL-C,[2]; [7],4.3 ± 0.3
same,LDL-C,[2]; [7],28.1 ± 1.8 mg/dL
same,Total Cholesterol,[2]; [7],178.5 ± 5.4 mg/dL
same,Triglycerides,[2]; [7],325.6 ± 24.3 mg/dL
same,HDL-C,[2]; [8],121.4 ± 2.5 mg/dL
same,HDL-C/LDL-C,[2]; [8],4.6 ± 0.4
same,LDL-C,[2]; [8],27.9 ± 2.5 mg/dL
same,Total Cholesterol,[2]; [8],188.4 ± 9.2 mg/dL
same,Triglycerides,[2]; [8],350.8 ± 10.9 mg/dL
CCOC(=O)N1c2ccc(C(F)(F)F)cc2[C@@H](N(Cc2cc(C(F)(F)F)cc(C(F)(F)F)c2)C(=O)OC)C[C@H]1CC [Torcetrapib],results in Phase II trials,[3],positive results in Phase II trials
CCC(CC)CC1(C(=O)Nc2ccccc2SC(=O)C(C)C)CCCCC1 [JTT-705],CETP activity,[4],inhibited CETP activity
same,increased HDL-C,[4],+90%
same,reduced lesion size,[4],−70%
same,reduced non-HDL-C cholesterol,[4],−50%
same,lesion development,[5],not efficacious in preventing lesion development
same,plasma triglycerides,[5],significant elevations of plasma triglycerides
same,HDL-C,[6],raise HDL-C
same,LDL-C,[6],modestly lower LDL-C
same,triglyceride levels,[6],not alter triglyceride levels
"O[C@H](CN1c2cccc(-c3cccc(OC(F)(F)F)c3)c2CC[C@H]1c1cccc(OC(F)(F)C(F)F)c1)C(F)(F)F [Compound 81, (2S, αR)-3,4-Dihydro-2-[3-(1,1,2,2-tetrafluoroethoxy)phenyl]-5-[3-(trifluoromethoxy)phenyl]-α-(trifluoromethyl)-1(2H)-quinolineethanol]",% Inhibition @ 1 μM,[1],36%
same,inhibition at 1 µM,[1],46%
same,IC50,[1],30 nM
"CCc1cc(Oc2cccc3c2CCC(c2cccc(OC(F)(F)C(F)F)c2)N3CC(O)C(F)(F)F)ccc1Cl (stereo not shown) [Compound 84, 3-{5-(4-Chloro-3-ethyl-phenoxy)-2-[3-(1,1,2,2-tetrafluro-ethoxy)-phenyl]-3,4-dihydro-2H-quinolin-1-yl}-1,1,1-trifluoro-propan-2-ol]",% Inhibition @ 1 μM,[1],62%
same,IC50,[1],600 nM
"CC(C)C(O)CN1c2cccc(-c3cccc(OC(F)(F)F)c3)c2CCC1c1cccc(OC(F)(F)F)c1 (stereo not shown) [Compound 46, 1-[2,5-Bis-(3-trifluoromethoxy-phenyl)-3,4-dihydro-2H-quinolin-1-yl]-3-methyl-butan-2-ol]",% Inhibition @ 1 μM,[1],22%
"OC(CN1c2cccc(-c3cccc(OC(F)(F)F)c3)c2CCC1c1ccccc1OC(F)(F)C(F)F)C(F)(F)F (stereo not shown) [Compound 90, 1,1,1-Trifluoro-3-[2-[2-(1,1,2,2-tetrafluoro-ethoxy)-phenyl]-5-(3-trifluoromethoxy-phenyl)-3,4-dihydro-2H-quinolin-1-yl]-propan-2-ol]",% Inhibition @ 1 μM,[1],0%
"OC(CN1c2cccc(-c3cccc(F)c3)c2CCC1c1cccc(OC(F)(F)F)c1)C(F)(F)F (stereo not shown) [Compound 57, 1,1,1-Trifluoro-3-[5-(3-fluoro-phenyl)-2-(3-trifluoromethoxy-phenyl)-3,4-dihydro-2H-quinolin-1-yl]-propan-2-ol]",% Inhibition @ 1 μM,[1],92% and 97% and 91%
same,IC50,[1],59 nM and 253 nM
"N#Cc1cccc(C2CCc3c(-c4cccc(OC(F)(F)F)c4)cccc3N2CC(O)C(F)(F)F)c1 (stereo not shown) [Compound 27, 3-[1-(3,3,3-Trifluoro-2-hydroxy-propyl)-5-(3-trifluoromethoxy-phenyl)-1,2,3,4-tetrahydro-quinolin-2-yl]-benzonitrile]",% Inhibition @ 1 μM,[1],48% and 38%
same,IC50,[1],410 nM
"CC(C)C(O)CN1c2cccc(-c3cccc(OC(F)(F)F)c3)c2CCC1c1cccc(OC(F)(F)F)c1 (stereo not shown) [Compound 45, 1-[2,5-Bis-(3-trifluoromethoxy-phenyl)-3,4-dihydro-2H-quinolin-1-yl]-3-methyl-butan-2-ol]",% Inhibition @ 1 μM,[1],74% and 84%
same,IC50,[1],326 nM
"Cc1cc(-c2cccc3c2CCC(c2cccc(OC(F)(F)C(F)F)c2)N3CC(O)C(F)(F)F)ccc1Cl (stereo not shown) [Compound 5, 3-{5-(4-Chloro-3-methyl-phenyl)-2-[3-(1,1,2,2-tetrafluoro-ethoxy)-phenyl]-3,4-dihydro-2H-quinolin-1-yl}-1,1,1-trifluoro-propan-2-ol]",% Inhibition @ 1 μM,[1],96%
same,IC50,[1],260 nM and 381 nM
"CC(C)c1cccc(-c2cccc3c2CCC(c2cccc(OC(F)(F)C(F)F)c2)N3CC(O)C(F)(F)F)c1 (stereo not shown) [Compound 66, 1,1,1-Trifluoro-3-{5-(3-isopropyl-phenyl)-2-[3-(1,1,2,2-tetrafluoro-ethoxy)-phenyl]-3,4-dihydro-2H-quinolin-1-yl}-propan-2-ol]",% Inhibition @ 1 μM,[1],60% and 65%
same,IC50,[1],181 nM and 374 nM
"OC(CF)CN1c2cccc(-c3cccc(OC(F)(F)F)c3)c2CCC1c1cccc(OC(F)(F)F)c1 (stereo not shown) [Compound 50, 1-[2,5-Bis-(3-trifluoromethoxy-phenyl)-3,4-dihydro-2H-quinolin-1-yl]-3-fluoro-propan-2-ol]",% Inhibition @ 1 μM,[1],13%
"CCc1cc(Oc2cccc3c2CCC(c2cccc(OC(F)(F)C(F)F)c2)N3CC(O)C(F)(F)F)ccc1Cl (stereo not shown) [Compound 85, 3-{5-(4-Chloro-3-ethyl-phenoxy)-2-[3-(1,1,2,2-tetrafluro-ethoxy)-phenyl]-3,4-dihydro-2H-quinolin-1-yl}-1,1,1-trifluoro-propan-2-ol]",% Inhibition @ 1 μM,[1],86%
same,IC50,[1],400 nM
"OC(CN1c2cccc(-c3ccc(OC(F)(F)F)cc3)c2CCC1c1cccc(OC(F)(F)C(F)F)c1)C(F)(F)F (stereo not shown) [Compound 7, 1,1,1-Trifluoro-3-[2-[3-(1,1,2,2-tetrafluoro-ethoxy)-phenyl]-5-(4-trifluoromethoxy-phenyl)-3,4-dihydro-2H-quinolin-1-yl]-propan-2-ol]",% Inhibition @ 1 μM,[1],"61, 61%"
